According to patent publication US20260297542A1, “HERBICIDE RESISTANT PLANTS” (SYNGENTA CROP PROTECTION AG, priority 2023, published 2026):
Numbering of substitutions follows the chain as printed.

Columns and labels:
Assay in all cases: E. coli hemG growth inhibition by herbicide, AtPPO1 variant
Format in all cases: cell-based
Settings in all cases: read-out: percentage growth inhibition
AtPPO1 F207Y = target: T1, AtPPO1 F207Y (Arabidopsis thaliana, UniProt P55826, F207Y)
T1 construct: expressed in transfected cells; host or cells: E. coli BL21(DE3) hemG (hemG replaced by CmR), pET24a plasmid
T1 sequence (P55826 35-537 F207Y): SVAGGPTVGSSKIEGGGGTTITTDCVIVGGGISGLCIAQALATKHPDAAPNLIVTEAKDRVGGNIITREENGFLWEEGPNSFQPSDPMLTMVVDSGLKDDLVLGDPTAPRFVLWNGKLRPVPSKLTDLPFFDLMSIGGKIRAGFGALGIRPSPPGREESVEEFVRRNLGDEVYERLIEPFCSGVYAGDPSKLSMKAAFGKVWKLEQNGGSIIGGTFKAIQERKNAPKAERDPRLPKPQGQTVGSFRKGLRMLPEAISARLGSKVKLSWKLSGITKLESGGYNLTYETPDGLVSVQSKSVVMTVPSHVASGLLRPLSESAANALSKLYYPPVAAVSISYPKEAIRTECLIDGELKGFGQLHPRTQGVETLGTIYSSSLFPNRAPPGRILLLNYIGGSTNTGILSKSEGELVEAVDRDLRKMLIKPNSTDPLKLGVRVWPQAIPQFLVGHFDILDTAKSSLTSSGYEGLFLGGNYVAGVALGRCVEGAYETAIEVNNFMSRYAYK
Outline: (§1)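 E. coli BL21(DE3) ΔhemG::CmR complemented by AtPPO1 variants (pET24a, T7, E. coli codon-optimised); TB + 0.1 mM IPTG, 1:100 inoculum; 6.25 ppm herbicide 0/E or 0.78 ppm herbicide B vs DMSO; 24 h, 37° C, 250 rpm; OD600 at 24 h → % growth inhibition.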

AtPPO1 V88I = target: T2, AtPPO1 V88I (Arabidopsis thaliana, UniProt P55826, V88I)
T2 construct: expressed in transfected cells; host or cells: E. coli BL21(DE3) hemG (hemG replaced by CmR), pET24a plasmid
T2 sequence (P55826 35-537 V88I): T1 sequence (P55826 35-537 F207Y) with V54I, Y173F
Outline: as §1

AtPPO1 Y361C = target: T3, AtPPO1 Y361C (Arabidopsis thaliana, UniProt P55826, Y361C)
T3 construct: expressed in transfected cells; host or cells: E. coli BL21(DE3) hemG, pET24a plasmid
T3 sequence (P55826 35-537 Y361C): T1 sequence (P55826 35-537 F207Y) with Y173F, Y327C
Outline: as §1

AtPPO1 T431F = target: T4, AtPPO1 T431F (Arabidopsis thaliana, UniProt P55826, T431F)
T4 construct: expressed in transfected cells; host or cells: E. coli BL21(DE3) hemG, pET24a plasmid
T4 sequence (P55826 35-537 T431F): T1 sequence (P55826 35-537 F207Y) with Y173F, T397F
Outline: as §1

Compound | inhibition at 6.25 ppm (AtPPO1 F207Y) [%] | inhibition at 6.25 ppm (AtPPO1 V88I) [%] | inhibition at 6.25 ppm (AtPPO1 Y361C) [%] | inhibition at 6.25 ppm (AtPPO1 T431F) [%] | inhibition at 0.78 ppm (AtPPO1 F207Y) [%] | inhibition at 0.78 ppm (AtPPO1 V88I) [%] | inhibition at 0.78 ppm (AtPPO1 Y361C) [%] | inhibition at 0.78 ppm (AtPPO1 T431F) [%]
CCOC(=O)[C@]1(C)CC(c2cc(-n3c(=O)n(C)c(=S)n(C)c3=O)c(F)cc2Cl)=NO1 [Herbicide D, ethyl (5S)-3-[2-chloro-5-(3,5-dimethyl-2,6-dioxo-4-thioxo-1,3,5-triazinan-1-yl)-4-fluoro-phenyl]-5-methyl-4H-isoxazole-5-carboxylate] | 19 | 43 | 15 | 0 |  |  |  | 
C#CCN1C(=O)C(F)(F)Oc2cc(F)c(-n3c(=O)n(C)c(=S)n(C)c3=O)cc21 [Herbicide B, trifludimoxazin] |  |  |  |  | 29 | 32 | 36 | 41
CC(C)N(C)S(=O)(=O)NC(=O)c1cc(-n2c(=O)cc(C(F)(F)F)n(C)c2=O)c(F)cc1Cl [Herbicide E, saflufenacil] | 66 | 66 | 35 | 37 |  |  |  | 
